# According to patent US9505767B2, “Pyrazolo[1,5-A]pyrimidin-7(4H)-onehistone demethylase inhibitors” (Genentech, Inc., priority 2013, dated 2016):
# Key:
# KDM5A [1] = target: T1, KDM5A (Homo sapiens, UniProt P29375); assay: KDM5A Demethylase Assay (MassSpec Assay-A); format: biochemical; settings: full length recombinant Flag tagged KDM5A, 20 nM; MassSpec readout; biotinylated H3K9me1 peptide 4.0 μM; read-out: A KDM5A MS (IC50)
# T1 construct: Full length recombinant Flag tagged KDM5A protein was purified from Sf9 insect cells; Flag; made in house; host or cells: Sf9 insect cells
# T1 sequence (P29375 whole entry): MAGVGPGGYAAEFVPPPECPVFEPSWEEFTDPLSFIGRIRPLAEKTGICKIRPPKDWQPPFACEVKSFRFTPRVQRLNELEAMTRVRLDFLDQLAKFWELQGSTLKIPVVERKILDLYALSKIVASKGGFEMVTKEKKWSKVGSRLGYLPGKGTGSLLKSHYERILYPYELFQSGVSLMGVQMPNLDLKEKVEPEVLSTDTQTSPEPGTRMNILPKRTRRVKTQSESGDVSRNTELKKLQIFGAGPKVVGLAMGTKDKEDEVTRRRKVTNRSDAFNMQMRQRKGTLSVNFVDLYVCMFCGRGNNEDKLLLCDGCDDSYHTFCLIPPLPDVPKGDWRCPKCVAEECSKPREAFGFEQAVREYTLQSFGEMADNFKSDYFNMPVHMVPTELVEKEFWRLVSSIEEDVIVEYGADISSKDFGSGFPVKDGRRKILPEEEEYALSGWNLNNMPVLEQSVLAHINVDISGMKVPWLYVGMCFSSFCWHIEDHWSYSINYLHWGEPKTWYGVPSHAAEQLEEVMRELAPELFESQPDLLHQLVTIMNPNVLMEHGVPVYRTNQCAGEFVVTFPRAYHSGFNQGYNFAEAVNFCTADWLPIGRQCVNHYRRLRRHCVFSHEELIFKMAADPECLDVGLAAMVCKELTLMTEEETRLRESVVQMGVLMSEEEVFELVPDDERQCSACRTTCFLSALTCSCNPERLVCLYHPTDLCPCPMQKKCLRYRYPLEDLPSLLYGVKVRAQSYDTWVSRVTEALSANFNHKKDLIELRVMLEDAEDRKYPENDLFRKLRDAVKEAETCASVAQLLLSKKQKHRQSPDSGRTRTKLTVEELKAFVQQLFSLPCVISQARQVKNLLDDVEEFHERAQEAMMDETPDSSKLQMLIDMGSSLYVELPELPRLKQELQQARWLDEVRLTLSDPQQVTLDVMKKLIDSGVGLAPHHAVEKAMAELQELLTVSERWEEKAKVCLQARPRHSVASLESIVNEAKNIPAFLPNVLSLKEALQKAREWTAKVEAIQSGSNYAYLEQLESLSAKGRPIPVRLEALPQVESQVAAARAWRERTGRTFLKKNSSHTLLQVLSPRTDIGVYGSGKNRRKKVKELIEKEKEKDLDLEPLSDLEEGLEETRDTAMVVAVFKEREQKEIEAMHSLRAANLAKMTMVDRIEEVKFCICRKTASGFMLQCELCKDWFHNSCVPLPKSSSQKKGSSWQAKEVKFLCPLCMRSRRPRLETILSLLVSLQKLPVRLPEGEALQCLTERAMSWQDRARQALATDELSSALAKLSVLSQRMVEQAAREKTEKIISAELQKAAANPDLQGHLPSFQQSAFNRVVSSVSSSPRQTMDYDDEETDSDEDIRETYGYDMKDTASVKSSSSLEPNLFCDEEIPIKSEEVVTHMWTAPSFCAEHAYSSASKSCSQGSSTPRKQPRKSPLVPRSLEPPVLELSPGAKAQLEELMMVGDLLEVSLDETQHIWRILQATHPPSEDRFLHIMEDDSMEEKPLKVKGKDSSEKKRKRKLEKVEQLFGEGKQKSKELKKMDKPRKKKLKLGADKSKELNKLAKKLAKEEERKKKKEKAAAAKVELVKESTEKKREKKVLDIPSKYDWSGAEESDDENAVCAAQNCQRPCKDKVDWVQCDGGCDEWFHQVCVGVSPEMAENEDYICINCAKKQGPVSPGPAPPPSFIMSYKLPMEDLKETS
# Protocol: Full length recombinant Flag tagged KDM5A protein was purified from […] insect cells. The demethylation reaction buffer contained 50 mM TrisCl pH 7.4, 0.01% Triton X-100, 0.025 mg/mL BSA, 1 mM ascorbate (Cat# A4034, Sigma Aldrich), 2 mM TCEP (Cat# D9779, Sigma Aldrich), 2.0 μM α-ketoglutarate (# K2010, Sigma Aldrich) and 50 μM Fe2(NH4)2(SO4)2 (Cat# F1543, Sigma Aldrich). In a 25 μL demethylation reaction system, 20 nM recombinant KDM5A and was incubated with compounds for 10 minutes in the above buffer, and then […] (# K2010, Sigma Aldrich), 4.0 μM biotinylated H3K9me1 peptide (1-21 aa), and Fe2(NH4)2(SO4)2 were added to initiate the reaction. (All reagent concentrations are final reagent concentrations.) Reactions were incubated for 30 minutes at room temperature, and then quenched by addition of an equal volume of 1% formic acid. After termination, plates were sealed and frozen at −80° C. for analysis.
# KDM5A [2] = target: T1, KDM5A; assay: KDM5A Demethylase Assay (TR-FRET Assay-B); format: biochemical; settings: full length recombinant Flag tagged KDM5A, 2 nM, TrisCl pH 7.4, 3.0 μM α-ketoglutarate, read-out: B KDM5A HTRF (IC50)
# Protocol: Full length recombinant Flag tagged KDM5A protein was purified from Sf9 insect cells. The demethylation reaction buffer contained 50 mM TrisCl pH 7.4, 0.01% Triton X-100, 0.025 mg/mL BSA, 1 mM ascorbate, 2 mM TCEP, 3.0 μM α-ketoglutarate, and 50 μM Fe2(NH4)2(SO4)2. […] After a one hour incubation assays were read on a Perkin-Elmer Envision equipped with a laser source and appropriate filters.
IC50 (KDM5A [1]) [nM],IC50 (KDM5A [2]) [nM],SMILES
26.3,,CCc1c(C)[nH]c2c(-c3cnn(-c4nccc(C)n4)c3)cnn2c1=O [Example 1]
,14.1,"CCc1c(C)[nH]c2c(-c3cnn(-c4cc(OCCO)ccn4)c3)cnn2c1=O [Example 17, 6-ethyl-3-(1-(4-(2-hydroxyethoxy)pyridin-2-yl)-1H-pyrazol-4-yl)-5-methylpyrazolo[1,5-a]pyrimidin-7(4H)-one]"
,9.8,"CCc1c(C)[nH]c2c(-c3cnn(-c4cc(OCCN)ccn4)c3)cnn2c1=O [Example 18, 3-(1-(4-(2-aminoethoxy)pyridin-2-yl)-1H-pyrazol-4-yl)-6-ethyl-5-methylpyrazolo[1,5-a]pyrimidin-7(4H)-one]"
,5.7,"Cc1[nH]c2c(-c3cnn(-c4ncccn4)c3)cnn2c(=O)c1C(C)C [Example 19, 6-isopropyl-5-methyl-3-(1-(pyrimidin-2-yl)-1H-pyrazol-4-yl)pyrazolo[1,5-a]pyrimidin-7(4H)-one]"
,8.3,"Cc1[nH]c2c(-c3cnn(-c4ccccn4)c3)cnn2c(=O)c1C(C)C [Example 20, 6-isopropyl-5-methyl-3-(1-(pyridin-2-yl)-1H-pyrazol-4-yl)pyrazolo[1,5-a]pyrimidin-7(4H)-one]"
,9.1,"Cc1ccc(-n2cc(-c3cnn4c(=O)c(C(C)C)c(C)[nH]c34)cn2)nc1 [Example 21, 6-isopropyl-5-methyl-3-(1-(5-methylpyridin-2-yl)-1H-pyrazol-4-yl)pyrazolo[1,5-a]pyrimidin-7(4H)-one]"
,23.6,"Cc1ccnc(-n2cc(-c3cnn4c(=O)c(C(C)C)c(C)[nH]c34)cn2)c1 [Example 22, 6-isopropyl-5-methyl-3-(1-(4-methylpyridin-2-yl)-1H-pyrazol-4-yl)pyrazolo[1,5-a]pyrimidin-7(4H)-one]"
,54.3,"Cc1ccnc(-n2cc(-c3cnn4c(=O)c(C(C)C)c(C)[nH]c34)cn2)n1 [Example 23, 6-isopropyl-5-methyl-3-(1-(4-methylpyrimidin-2-yl)-1H-pyrazol-4-yl)pyrazolo[1,5-a]pyrimidin-7(4H)-one]"
,16.6,"Cc1cnc(-n2cc(-c3cnn4c(=O)c(C(C)C)c(C)[nH]c34)cn2)nc1 [Example 24, 6-isopropyl-5-methyl-3-(1-(5-methylpyrimidin-2-yl)-1H-pyrazol-4-yl)pyrazolo[1,5-a]pyrimidin-7(4H)-one]"
,6.6,"Cc1[nH]c2c(-c3cnn(-c4ccc(CO)cn4)c3)cnn2c(=O)c1C(C)C [Example 25, 3-(1-(5-(hydroxymethyl)pyridin-2-yl)-1H-pyrazol-4-yl)-6-isopropyl-5-methylpyrazolo[1,5-a]pyrimidin-7(4H)-one]"
,13.4,"Cc1ccnc(-n2cc(-c3cnn4c(=O)c(C5CC5)c(C)[nH]c34)cn2)c1 [Example 28, 6-cyclopropyl-5-methyl-3-(1-(4-methylpyridin-2-yl)-1H-pyrazol-4-yl)pyrazolo[1,5-a]pyrimidin-7(6H)-one]"
,18.5,"Cc1[nH]c2c(-c3cnn(-c4ncccn4)c3)cnn2c(=O)c1C1CC1 [Example 29, 6-cyclopropyl-5-methyl-3-(1-(pyrimidin-2-yl)-1H-pyrazol-4-yl)pyrazolo[1,5-a]pyrimidin-7(6H)-one]"
,4.8,"Cc1ccnc(-n2cc(-c3cnn4c(=O)c(C5CC5)c(C)[nH]c34)cn2)n1 [Example 30, 6-cyclopropyl-5-methyl-3-(1-(4-methylpyrimidin-2-yl)-1H-pyrazol-4-yl)pyrazolo[1,5-a]pyrimidin-7(6H)-one]"
,48.7,"Cc1cnc(-n2cc(-c3cnn4c(=O)c(C5CC5)c(C)[nH]c34)cn2)nc1 [Example 31, 6-cyclopropyl-5-methyl-3-(1-(5-methylpyrimidin-2-yl)-1H-pyrazol-4-yl)pyrazolo[1,5-a]pyrimidin-7(6H)-one]"
,7.9,"Cc1[nH]c2c(-c3cnn(-c4ccc(CO)cn4)c3)cnn2c(=O)c1C1CC1 [Example 32, 6-cyclopropyl-3-(1-(5-(hydroxymethyl)pyridin-2-yl)-1H-pyrazol-4-yl)-5-methylpyrazolo[1,5-a]pyrimidin-7(6H)-one]"
,196,"CCc1c(C)[nH]c2c(-c3cnn(C(C)=O)c3)cnn2c1=O [Example 33, 3-(1-acetyl-1H-pyrazol-4-yl)-6-ethyl-5-methylpyrazolo[1,5-a]pyrimidin-7(4H)-one]"
,4180,"CCc1c(C)[nH]c2c(-c3cnn(C(=O)N(C)C)c3)cnn2c1=O [Example 34, 4-(6-ethyl-5-methyl-7-oxo-4,7-dihydropyrazolo[1,5-a]pyrimidin-3-yl)-N,N-dimethyl-1H-pyrazole-1-carboxamide]"
,543,"CCc1c(C)[nH]c2c(-c3cnn(C(=O)C(C)(C)C)c3)cnn2c1=O [Example 35, 6-ethyl-5-methyl-3-(1-pivaloyl-1H-pyrazol-4-yl)pyrazolo[1,5-a]pyrimidin-7(4H)-one]"

IC50 (KDM5A [1]) [nM],IC50 (KDM5A [2]) [nM],SMILES
,1000,"CCc1c(C)[nH]c2c(-c3cnn(C(=O)OC)c3)cnn2c1=O [Example 36, Methyl 4-(6-ethyl-5-methyl-7-oxo-4,7-dihydropyrazolo[1,5-a]pyrimidin-3-yl)-1H-pyrazole-1-carboxylate]"
,335,"CCc1[nH]c2c(-c3cnn(-c4ccccn4)c3)cnn2c(=O)c1C [Example 37, 5-ethyl-6-methyl-3-(1-(pyridin-2-yl)-1H-pyrazol-4-yl)pyrazolo[1,5-a]pyrimidin-7(4H)-one]"
,1000,"Cc1c(C(C)C)[nH]c2c(-c3cnn(-c4ccccn4)c3)cnn2c1=O [Example 38, 5-isopropyl-6-methyl-3-(1-(pyridin-2-yl)-1H-pyrazol-4-yl)pyrazolo[1,5-a]pyrimidin-7(4H)-one]"
,624,"Cc1c(C2CC2)[nH]c2c(-c3cnn(-c4ccccn4)c3)cnn2c1=O [Example 39, 5-cyclopropyl-6-methyl-3-(1-(pyridin-2-yl)-1H-pyrazol-4-yl)pyrazolo[1,5-a]pyrimidin-7(4H)-one]"
,101,"COc1c(C)[nH]c2c(-c3cnn(-c4ccccn4)c3)cnn2c1=O [Example 40, 6-methoxy-5-methyl-3-(1-(pyridin-2-yl)-1H-pyrazol-4-yl)pyrazolo[1,5-a]pyrimidin-7(4H)-one]"
,4.1,"CCc1c(CO)[nH]c2c(-c3cnn(-c4ccccn4)c3)cnn2c1=O [Example 41, 6-ethyl-5-(hydroxymethyl)-3-(1-(pyridin-2-yl)-1H-pyrazol-4-yl)pyrazolo[1,5-a]pyrimidin-7(4H)-one]"
,60.5,"Cc1[nH]c2c(-c3cnn(-c4ccccn4)c3)cnn2c(=O)c1Cl [Example 43, 6-chloro-5-methyl-3-[1-(2-pyridyl)pyrazol-4-yl]-4H-pyrazolo[1,5-a]pyrimidin-7-one]"
6320,,"CCc1c(C)[nH]c2c(-n3cnc(-c4cccnc4)c3)cnn2c1=O [Example 45, 6-ethyl-5-methyl-3-(4-(pyridin-3-yl)-1H-imidazol-1-yl)pyrazolo[1,5-a]pyrimidin-7(4H)-one]"
574,,"CCc1c(-c2ccccc2)[nH]c2c(-n3cnc(-c4ccccn4)c3)cnn2c1=O [Example 47, 6-ethyl-5-phenyl-3-(4-(pyridin-2-yl)-1H-imidazol-1-yl)pyrazolo[1,5-a]pyrimidin-7(4H)-one]"
70.5,,"CCc1c(C)[nH]c2c(-n3cnc(-c4ccccn4)c3)cnn2c1=O [Example 48, 6-Ethyl-5-methyl-3-(4-(pyridin-2-yl)-1H-imidazol-1-yl)pyrazolo[1,5-a]pyrimidin-7(4H)-one]"
,43.7,"Cc1cc(=O)n2ncc(-n3cnc(-c4ccccn4)c3)c2[nH]1 [Example 49, 5-Methyl-3-(4-(pyridin-2-yl)-1H-imidazol-1-yl)pyrazolo[1,5-a]pyrimidin-7(4H)-one]"
70.8,,"CCc1[nH]c2c(-n3cnc(-c4ccccn4)c3)cnn2c(=O)c1CC [Example 51, 5,6-Diethyl-3-(4-(pyridin-2-yl)-1H-imidazol-1-yl)pyrazolo[1,5-a]pyrimidin-7(4H)-one]"
470,,"Cc1c(-c2ccccc2)[nH]c2c(-n3cnc(-c4ccccn4)c3)cnn2c1=O [Example 52, 6-Methyl-5-phenyl-3-(4-(pyridin-2-yl)-1H-imidazol-1-yl)pyrazolo[1,5-a]pyrimidin-7(4H)-one]"
,66.1,"Cc1[nH]c2c(-c3cnn(-c4ccccn4)c3)cnn2c(=O)c1C [Example 61, 5,6-dimethyl-3-[1-(2-pyridyl)pyrazol-4-yl]-4H-pyrazolo[1,5-a]pyrimidin-7-one]"
,212,"Cc1[nH]c2c(-c3cnn(-c4ccccn4)c3)cnn2c(=O)c1F [Example 62, 6-fluoro-5-methyl-3-[1-(2-pyridyl)pyrazol-4-yl]-4H-pyrazolo[1,5-a]pyrimidin-7-one]"
,169,"CCc1[nH]c2c(-c3cnn(-c4ccccn4)c3)cnn2c(=O)c1CC [Example 63, 5,6-diethyl-3-[1-(2-pyridyl)pyrazol-4-yl]-4H-pyrazolo[1,5-a]pyrimidin-7-one]"
,830,"Cc1[nH]c2c(-c3cnn(-c4ccccn4)c3)cnn2c(=O)c1C#N [Example 64, 5-methyl-7-oxo-3-[1-(2-pyridyl)pyrazol-4-yl]-4H-pyrazolo[1,5-a]pyrimidine-6-carbonitrile]"
,5.1,"CCc1c(C)[nH]c2c(-c3cnn(-c4ccc(C)cn4)c3)cnn2c1=O [Example 65, 6-ethyl-5-methyl-3-[1-(5-methyl-2-pyridyl)pyrazol-4-yl]-4H-pyrazolo[1,5-a]pyrimidin-7-one]"
